Reference: the NIST ThermoML archive (doi:10.1016/j.jct.2016.06.007)

Test: mn = molality of the nth substance listed, in mol/kg
Conditions: Liquid, m1 = 7.377; for viscosity: Falling or rolling sphere viscometry; for mass density: Vibrating tube method

CN(CCO)CCO [N-methyldiethanolamine] + O
Conditions | mass density [kg/m3] | viscosity [mPa·s]
313.15 K, 6.3 kPa | 1031.4 | 4.23
328.15 K, 13.7 kPa | 1021.6 | 2.82
343.15 K, 27.4 kPa | 1009.7 | 1.83
